Experimental data: patent publication US11555210B2, “Microbe having increased tolerance to phenolic fermentation inhibitors” (University of Ottawa, priority 2018, dated 2023)

Assays:
Format in all cases: cell-based, S. cerevisiae
wild-type yeast (BY4741) = experiment: ROS measurement by H2DCFDA fluorescence microscopy; settings: 2 mM CA, 10 mM FA or 50 mM 4-HBA, 1 hour at 30° C.
Description: Measurement of ROS was performed as previously described (Kennedy et al., 2016, Sci Rep. 6, 19332). Briefly cells were incubated with 10 μM 2′,7′-dichlorodihydrofluorescein diacetate (H2DCFDA; Invitrogen cat. #D399) for 15 min in the dark. […] An aliquot of 5 μL was spotted onto glass slides and covered with a cover slip prior to imaging. All images were acquired using a Leica DMI 6000 florescent microscope (Leica Microsystems GmbH, Wetzler Germany), equipped with a Sutter DG4 light source (Sutter Instruments, California, USA), Ludl emission filter wheel with Chroma band pass emission filters (Ludl Electronic Products Ltd., NY, USA) and Hamamatsu Orca AG camera (Hamamatsu Photonics, Herrsching am Ammersee, Germany). Images were acquired at 0.2 μm steps across 6 μm using a 63× oil-immersion objective with a 1.4 numerical aperture. Analysis of H2DCFDA fluorescence was performed using Velocity Software V4 (Perkin Elmer). Image J software was used to quantify the H2DCFDA fluorescence signal in cells as described by Schneider et al (Schneider et al., 2012, Nature Methods, 9, 671-675) with a slight modification. Briefly, background fluorescence was subtracted from the images and the total fluorescence of all the cells in the image was measured and divided by the number of cells in the image. The images contained a minimum of 100 cells. The ratio of fluorescence per cell of treated cultures was divided by that of untreated cultures to eliminate background endogenous ROS production.

Zwf1-GFP = Zwf1-GFP fluorescence microscopy
Description: For the microscopy studies, wild type cells expressing endogenously tagged Zwf1-GFP (YKB4825) were grown to mid log in YPD, prior to being washed and resuspended in YPD medium (Untreated) or YPD medium containing 2 mM coniferyl aldehyde (CA) for 120 min at 30° C. Images (FIG. 8A) are representative of three independent experiments where a minimum of 100 cells each were imaged. Scale bar represents 10 μm.

gnd1Δ (YKB4797) = experiment: dot assay on YPD agar plates; settings: 1 mM coniferyl aldehyde, 48 hr at 30° C.
Description: (§1) Wild type (BY4741) along with zwf1Δ (YKB4794), sol2Δ (YKB4847), sol3Δ (YKB4848), gnd1Δ (YKB4797), gnd2Δ (YKB4850), rpe1Δ (YKB4795), tal1Δ (YKB4851) and tkl1Δ (YKB4796) deletion strains were grown to mid log phase in YPD medium prior to being diluted into fresh medium to an OD600of 0.1. Four 10-fold serial dilutions were spotted onto YPD agar plates containing either 1 mM coniferyl aldehyde (1 mM CA) or no coniferyl aldehyde (0 mM CA). Plates were incubated for 48 hr at 30° C. and images are representative of three biological replicates.

rpe1Δ (YKB4795) = experiment: dot assay on YPD agar plates; settings: 1 mM coniferyl aldehyde, 48 hr at 30° C.
Description: as §1

tkl1Δ (YKB4796) = experiment: dot assay on YPD agar plates; settings: 1 mM coniferyl aldehyde, 48 hr at 30° C.
Description: as §1

zwf1Δ strains = experiment: ROS measurement by H2DCFDA fluorescence microscopy; settings: 2 mM coniferyl aldehyde; ρ=0.012
Description: For all microscopy experiments overnight cultures of wild-type yeast grown at 30° C. were re-suspended at an OD600 of 0.1 in YPD medium and allowed to reach mid-log phase prior to imaging. Measurement of ROS was performed as previously described (Kennedy et al., 2016, Sci Rep. 6, 19332). Briefly cells were incubated with 10 μM 2′,7′-dichlorodihydrofluorescein diacetate (H2DCFDA; Invitrogen cat. #D399) for 15 min in the dark. Cells were washed in sterile PBS to remove traces of the dye after which they were re-suspended in YPD medium alone, or YPD supplemented with either 2 mM coniferyl aldehyde, 10 mM ferulic acid or 50 mM 4-hydroxybenzoic acid or hydrogen peroxide for 1 hour at 30° C. […]
Analysis of H2DCFDA fluorescence was performed using Velocity Software V4 (Perkin Elmer). Image J software was used to quantify the H2DCFDA fluorescence signal in cells as described by Schneider et al (Schneider et al., 2012, Nature Methods, 9, 671-675) with a slight modification. Briefly, background fluorescence was subtracted from the images and the total fluorescence of all the cells in the image was measured and divided by the number of cells in the image. […] The ratio of fluorescence per cell of treated cultures was divided by that of untreated cultures to eliminate background endogenous ROS production. […]

COc1cc(C=CC=O)ccc1O [coniferyl aldehyde, 4-hydroxy-3-methoxycinnamaldehyde]
subcellular distribution of induced ROS (wild-type yeast (BY4741)): formed punctate structures within the cell | Zwf1-GFP fluorescence signal/cell (Zwf1-GFP; 2 mM CA for 120 min at 30° C. (ρ=9.69E-5), ferulic acid 10 mM): significant increase | Zwf1-GFP localization (Zwf1-GFP; 2 mM coniferyl aldehyde, 2 hours): punctuate localization | growth of gnd1Δ on agar plates (gnd1Δ (YKB4797)): no growth | growth of rpe1Δ on agar plates (rpe1Δ (YKB4795)): no growth | growth of tkl1Δ on agar plates (tkl1Δ (YKB4796)): no growth | ROS signal in zwf1Δ compared to wild-type (zwf1Δ strains): over two-fold induction
